# From article PMC12379159 (Journal of Natural Products, 2025)
# Substitutions are numbered along the chain they refer to. Like-named read-outs stand apart in the source and are kept apart here.
# Key:
# RORγ = tested on: RORγ; parameters: method as in numbers not given; conditions: Figure 4, collected from the literature; ref numbers not given; cited from earlier work
# [1] = tested on: Il17a and Il17f (Il17a/f); experiment: RT-qPCR of Il17a and Il17f in EL-4-mRORγt cells; assay type: cell-based, murine; conditions: then 4.5-h PMA and ionomycin
# Description: For RT-qPCR assays, 5 × 10^5 EL-4-mRORγt cells were seeded in 500 μL complete DMEM per well of a 24-well plate and treated with the vehicle control, the positive control, or the compounds of interest. After incubation for 20–24 h, cells were stimulated with Cell Activation Cocktail (PMA: 40.5 μM, ionomycin: 669.3 μM; 500X) for 4.5 h. Afterward, total RNA was isolated using the innuPREP RNA Mini Kit 2.0 according to the manufacturer’s instructions. According to the manufacturer’s instructions, 1 μg RNA was reverse-transcribed into cDNA using the High-Capacity cDNA Reverse Transcription Kit. RT-qPCR was performed using the Luna Universal qPCR Master Mix on a LightCycler 480 (Roche Diagnostics, Rotkreuz, Switzerland) according to the manufacturer’s instructions. […] Livak’s 2−ΔΔCt method was employed to determine the expression levels of RORγ target genes. This involved normalizing the target gene expression to the expression levels of the control gene 18s, followed by further normalization to the vehicle control.
# Gal4-hRORγ = target: T1, Gal4-hRORγ (Homo sapiens, UniProt P51449); experiment: Gal4-RORγ mammalian one-hybrid luciferase assay; assay type: cell-based; conditions: HEK293 cells; for IC50: 18 h treatment, up to 5 μM
# T1 construct: Encodes for a hRORγ-LBD:Gal4-DBD fusion protein; expressed in transfected cells; host or cells: HEK293
# T1 sequence (P51449 269-508 limits assumed): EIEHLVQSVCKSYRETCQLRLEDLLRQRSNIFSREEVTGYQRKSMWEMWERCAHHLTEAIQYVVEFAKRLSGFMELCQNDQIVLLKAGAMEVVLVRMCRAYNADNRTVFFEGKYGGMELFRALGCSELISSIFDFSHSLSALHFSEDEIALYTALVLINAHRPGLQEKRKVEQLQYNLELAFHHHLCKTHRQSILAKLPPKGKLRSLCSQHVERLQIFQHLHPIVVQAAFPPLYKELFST
# Description: (§1) For luciferase assays, 8 × 10^6 HEK293 cells were seeded on 150 mm cell culture dishes and incubated for 5 h. Afterward, cells were transfected with the calcium phosphate coprecipitation method using 5 μg of the nuclear receptor (Gal4-hRORγ or full-length human RORγ), 5 μg of a luciferase reporter (pTK-MH100 × 4-LUC for Gal4-hRORγ experiments or RORE-LUC for full-length human RORγ experiments) and 3 μg eGFP-N1 (for assessing transfection efficiency) plasmid DNA and incubated overnight. […] The medium was changed the following day, and cells were further incubated for another four to 5 h before trypsin/EDTA was added to detach them from the dishes. […] RLUs were normalized to relative fluorescence units (RFU) to account for differences in cell number and transfection efficiency and then normalized to the vehicle control. Results are expressed as fold activation relative to the vehicle control.
# (§2) Concentration–response data were analyzed in GraphPad Prism version 10 by three-parameter logistic nonlinear regression, with the Hill slope constrained to a theoretical value of −1.0. An IC50 value was determined only for compounds yielding a statistically reliable fit. […] In these cases, only the maximal inhibition achieved at the highest tested concentration (I max(%) at 5 μM) is reported, calculated as follows: Imax(%)=(1−Bottom/Top)×100 (“top” = baseline activity measured at the lowest concentration, “bottom” = residual activity observed at the highest concentration, corresponding to the maximal inhibitory effect).
# full-length human RORγ = target: T2, full-length human RORγ (Homo sapiens, UniProt P51449); experiment: Full-length RORγ luciferase assay (RORE-LUC reporter); assay type: cell-based
# T2 construct: Encodes for the full-length human RORγ; expressed in transfected cells; host or cells: HEK293
# T2 sequence (P51449 1-518): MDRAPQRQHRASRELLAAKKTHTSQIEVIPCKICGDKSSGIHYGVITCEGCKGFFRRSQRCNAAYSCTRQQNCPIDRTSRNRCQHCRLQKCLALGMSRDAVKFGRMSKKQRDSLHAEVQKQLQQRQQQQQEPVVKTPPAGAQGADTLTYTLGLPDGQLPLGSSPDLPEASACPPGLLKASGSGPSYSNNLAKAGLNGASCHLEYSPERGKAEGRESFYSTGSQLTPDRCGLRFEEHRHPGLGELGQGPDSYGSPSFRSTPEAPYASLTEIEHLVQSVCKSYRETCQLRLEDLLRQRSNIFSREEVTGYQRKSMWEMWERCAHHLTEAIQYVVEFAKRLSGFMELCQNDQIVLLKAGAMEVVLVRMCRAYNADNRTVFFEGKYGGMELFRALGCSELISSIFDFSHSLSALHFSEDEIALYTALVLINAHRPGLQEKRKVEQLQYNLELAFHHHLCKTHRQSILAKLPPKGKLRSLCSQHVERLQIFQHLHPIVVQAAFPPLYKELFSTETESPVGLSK
# Description: as §1, §2
# hRORγ LBD = target: T3, hRORγ LBD (Homo sapiens, UniProt P51449); experiment: Thermal stability by nano differential scanning fluorimetry (nanoDSF); assay type: binding; conditions: RORγ-LBD with 4 equiv ligand vs without ligand; mean ± SD
# T3 construct: His tag (N, cleaved yes); made in house; host or cells: Escherichia coli BL21 DE3
# T3 sequence (P51449 264-518): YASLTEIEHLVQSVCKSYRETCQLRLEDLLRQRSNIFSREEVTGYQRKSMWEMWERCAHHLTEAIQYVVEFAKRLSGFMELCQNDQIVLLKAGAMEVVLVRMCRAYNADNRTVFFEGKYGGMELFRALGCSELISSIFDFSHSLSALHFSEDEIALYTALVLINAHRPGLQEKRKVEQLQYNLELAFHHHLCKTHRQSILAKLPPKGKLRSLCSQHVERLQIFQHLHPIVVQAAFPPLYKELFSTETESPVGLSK
# Description: Soluble proteins were purified on Ni Hitrap FFcrude column (Cytiva), followed by His tag removal by thrombin (MP Biomedicals) cleavage and by size exclusion chromatography on HiLoad Superdex200 column (Cytiva) equilibrated in 20 mM Tris-HCl pH 7.5, 150 mM NaCl, 1 mM TCEP (Hampton Research). Purity and homogeneity of the hRORγ LBD were assessed by SDS-PAGE. The purified protein was concentrated to 0.5–1.0 mg/mL with an Amicon Ultra 10 kDa MWCO. The aliquots of purified LBD were incubated with 4 equiv ligands or vehicle for thermal stability experiments.
# Fluorescence-based thermal experiments were performed using a Prometheus NT.48 (NanoTemper Technologies, Germany) with grade standard capillaries containing 10 μL of RORγLBD with different ligands. […] NanoTemper PR. Stability Analysis v1.0.2 was used to fit the data and determine the melting temperatures Tm.
# Gal4-RORγ H479L = target: T4, Gal4-RORγ H479L (Homo sapiens, UniProt P51449, H479L); experiment: Gal4-RORγ H479L mutant luciferase assay; conditions: 5 μM
# T4 sequence (P51449 269-508 H479L limits assumed): T1 sequence (P51449 269-508 limits assumed) with H211L
# Description: Gal4-hRORγ H323A and H479L mutants were generated using the QuikChange Lightning Site-Directed Mutagenesis Kit according to the manufacturer’s instructions. Briefly, 10 ng template DNA (Gal4-hRORγ) was PCR-amplified with the respective mutagenic forward and reverse primers listed in Table S3, which were designed using the QuikChange Primer Design tool (https://www.agilent.com/store/primerDesignProgram.jsp). […] Two μL of the PCR product were then transformed into XL1-Blue competent E. coli according to a protocol provided by NEB. […] After centrifuging the main culture at 5691g for 10 min, the supernatant was decanted, and plasmid preparation was performed using the PureLink HiPure Plasmid Midiprep Kit according to the manufacturer’s instructions. DNA yields and purities were checked using a NanoDrop 2000c (Thermo Fisher Scientific, Waltham, MA, USA).
# [2] = pretreated 20–24 h at indicated concentrations
smiles,measurement,setting,value
CC(C)=CCC[C@H](C)[C@H]1CC[C@H]2C3=C(CC[C@]12C)[C@@]1(C)CC[C@H](O)[C@@](C)(C(=O)O)C1CC3 (stereo partly drawn) [4α-carboxy-4β-methyl-zymosterol],RORγ inverse agonist or agonist,RORγ,Agonist
C=C(C)[C@@H]1CC[C@]2(C(=O)NCCCN(C)C)CC[C@]3(C)[C@H](CC[C@@H]4[C@@]5(C)CC[C@H](O)C(C)(C)[C@@H]5CC[C@]43C)[C@@H]12 [Compound 24],RORγ inverse agonist or agonist,RORγ,Inverse agonist
C=C(C)[C@@H]1CC[C@]2(C=O)CC[C@]3(C)[C@H](CC[C@@H]4[C@@]5(C)CC[C@H](O)C(C)(C)[C@@H]5CC[C@]43C)[C@@H]12 [Betulinaldehyde],RORγ inverse agonist or agonist,RORγ,Agonist
C[C@H]1[C@H](C)CC[C@]2(C(=O)O)CC[C@]3(C)C(=CC[C@@H]4[C@@]5(C)CCC(=O)C(C)(C)[C@@H]5CC[C@]43C)[C@H]12 [Ursonic acid],RORγ inverse agonist or agonist,RORγ,Inverse agonist
"OC(c1ccc(-c2ccc(CN3CCN(Cc4ccncc4)CC3)cc2)c(F)c1)(C(F)(F)F)C(F)(F)F [SR2211, reference compound]",Il17a/f expression,"[1]; 5 μM, 20–24 h",significant and reproducible down-regulation
C=C(C)[C@@H]1CC[C@]2(C(=O)O)CC[C@]3(C)[C@H](CC[C@@H]4[C@@]5(C)C/C(=C/c6ccccc6)C(=O)C(C)(C)[C@@H]5CC[C@]43C)[C@@H]12 [Compound 15.3],"Imax(%) at 5 μM, Gal4-RORγ luciferase assay",Gal4-hRORγ,53%
same,IC50,Gal4-hRORγ,2.7 µM
same,"Imax(%) at 5 μM, full-length RORγ luciferase assay",full-length human RORγ; HEK293 cells,67%
same,IC50,"full-length human RORγ; HEK293 cells, 18 h treatment, up to 5 μM, read-out: IC50, full-length RORγ luciferase assay",> 5 µM
same,IC50,"full-length human RORγ; exceeds the highest concentration tested, only an estimate, read-out: Estimated IC50, full-length RORγ luciferase assay",5.7 µM
same,ΔTm measured with nano differential scanning fluorimetry,hRORγ LBD,2.8 ± 0.2 °C
same,Il17a/f expression,[1]; [2],significant and concentration-dependent reduction
same,Activity on Gal4-RORγ H479L vs WT,Gal4-RORγ H479L,loss of activity
CC(C)CCC[C@H](CCCC(C)(C)O)[C@H]1CC[C@H]2[C@@H]3CC=C4C[C@@H](O)CC[C@]4(C)[C@H]3CC[C@]12C [Gemini-cholesterol analogue],RORγ inverse agonist or agonist,RORγ,Inverse agonist
C=C(C)[C@@H]1CC[C@]2(C(=O)OC)CC[C@]3(C)[C@H](CC[C@@H]4[C@@]5(C)C/C(=C/c6ccco6)C(=O)C(C)(C)[C@@H]5CC[C@]43C)[C@@H]12 [Compound 15.4],"Imax(%) at 5 μM, Gal4-RORγ luciferase assay",Gal4-hRORγ,0%
same,"Imax(%) at 5 μM, full-length RORγ luciferase assay",full-length human RORγ; HEK293 cells,0%
same,ΔTm measured with nano differential scanning fluorimetry,hRORγ LBD,1.1 ± 0.2 °C
same,Il17a/f expression,[1]; [2],slightly but significantly up-regulated
same,Activity on Gal4-RORγ H479L vs WT,Gal4-RORγ H479L,remained inactive
COc1ccc(CC(=O)Nc2cc3oc4ccccc4c3cc2OC)cc1 [Compound 5],Activity in Gal4-RORγ luciferase assay (initial screen),Gal4-hRORγ; 3 μM,agonistic activity
C=C(C)[C@@H]1CC[C@]2(C(=O)O)CC[C@]3(C)[C@H](CC[C@@H]4[C@@]5(C)C/C(=C\c6ccccc6OC)C(=O)C(C)(C)[C@@H]5CC[C@]43C)[C@@H]12 [Compound 15.1],"Imax(%) at 5 μM, Gal4-RORγ luciferase assay",Gal4-hRORγ,34%
same,"Imax(%) at 5 μM, full-length RORγ luciferase assay",full-length human RORγ; HEK293 cells,24%
same,ΔTm measured with nano differential scanning fluorimetry,hRORγ LBD,5.9 ± 0.4 °C
same,Il17a/f expression,[1]; [2],inactive
C[C@@H]1CC[C@@]2(OC1)O[C@H]1C[C@H]3[C@@H]4CC=C5C[C@@H](O)CC[C@]5(C)[C@H]4CC[C@]3(C)[C@H]1[C@@H]2C [Diosgenin],RORγ inverse agonist or agonist,RORγ,Inverse agonist
C[C@H]1[C@H](C)CC[C@]2(C(=O)O)CC[C@]3(C)C(=CC[C@@H]4[C@@]5(C)CC[C@H](O)C(C)(C)[C@@H]5CC[C@]43C)[C@H]12 [Ursolic acid],RORγ inverse agonist or agonist,RORγ,Inverse agonist
C=C1C[C@]2(C)[C@H]3CC[C@@H]4[C@H]5[C@H](C(=C)C)CC[C@]5(C(=O)NCCCN(C)C)CC[C@@]4(C)[C@]3(C)CC[C@H]2C(C)(C)C1=O [Compound 25],RORγ inverse agonist or agonist,RORγ,Inverse agonist
C=C(C)[C@@H]1CC[C@]2(C(=O)O)CC[C@]3(C)[C@H](CC[C@@H]4[C@@]5(C)C/C(=C/c6cccc(I)c6)C(=O)C(C)(C)[C@@H]5CC[C@]43C)[C@@H]12 [Compound 15.2],"Imax(%) at 5 μM, Gal4-RORγ luciferase assay",Gal4-hRORγ,58%
same,IC50,Gal4-hRORγ,3.1 µM
same,"Imax(%) at 5 μM, full-length RORγ luciferase assay",full-length human RORγ; HEK293 cells,55%
same,ΔTm measured with nano differential scanning fluorimetry,hRORγ LBD,2.2 ± 0.5 °C
same,Il17a/f expression,[1]; [2],significant and concentration-dependent reduction
same,Activity on Gal4-RORγ H479L vs WT,Gal4-RORγ H479L,loss of activity
